Organism: Rattus norvegicus
Assay: DrugMatrix - Regimen: Daily Repeat
Format: toxicity, organism-based, Sprague-Dawley
Set-up: regimen Daily Repeat, gender Male, age 6-8 weeks
Settings: in vivo, po, route oral GAVAGE, vehicle .5 % CMC; for ABSOLUTE BASOPHIL / ABSOLUTE EOSINOPHIL / ABSOLUTE LYMPHOCYTE / ABSOLUTE MONOCYTE / ABSOLUTE SEGMENTED NEUTROPHIL / BASOPHIL / EOSINOPHIL / ERYTHROCYTE COUNT / HEMATOCRIT / HEMOGLOBIN / LEUKOCYTE COUNT / LYMPHOCYTE / MEAN CORPUSCULAR HEMOGLOBIN / MEAN CORPUSCULAR HEMOGLOBIN CONCENTRATION / MEAN CORPUSCULAR VOLUME / MONOCYTE / NEUTROPHIL / NUCLEATED RED BLOOD CELLS / PLATELET COUNT: tissue Blood; for ALANINE AMINOTRANSFERASE / ALBUMIN / ALKALINE PHOSPHATASE / ASPARTATE AMINOTRANSFERASE / BLOOD UREA NITROGEN / CARBON DIOXIDE / CHLORIDE / CHOLESTEROL / CREATINE PHOSPHOKINASE / CREATININE / GLUCOSE / LACTATE DEHYDROGENASE / LIPASE / PHOSPHORUS / POTASSIUM / SODIUM / TOTAL BILIRUBIN / TOTAL PROTEIN / URIC ACID: tissue Plasma
[1] = 1 mg/kg, 72 h, dose level Low, time 3 day
[2] = 1 mg/kg, 120 h, dose level Low, time 5 day
[3] = 68 mg/kg, 72 h, dose level High, time 3 day
[4] = 68 mg/kg, 120 h, dose level High, time 5 day

SMILES: C[C@]12C=CC(=O)C=C1CC[C@@H]1[C@@H]2C(=O)C[C@@]2(C)[C@H]1CC[C@]2(O)C(=O)CO [PREDNISONE]
- ABSOLUTE BASOPHIL [1]: 0 CELLS/uL
- ABSOLUTE EOSINOPHIL [1]: 0 CELLS/uL
- ABSOLUTE LYMPHOCYTE [1]: 13566 CELLS/uL
- ABSOLUTE MONOCYTE [1]: 151.33 CELLS/uL
- ABSOLUTE SEGMENTED NEUTROPHIL [1]: 1516 CELLS/uL
- BASOPHIL [1]: 0%
- EOSINOPHIL [1]: 0%
- ERYTHROCYTE COUNT [1]: 5.56 x10E6/uL
- HEMATOCRIT [1]: 34.8%
- HEMOGLOBIN [1]: 13.33 G/DL
- LEUKOCYTE COUNT [1]: 15.23 x10E3/uL
- LYMPHOCYTE [1]: 89%
- MEAN CORPUSCULAR HEMOGLOBIN [1]: 24 pg
- MEAN CORPUSCULAR HEMOGLOBIN CONCENTRATION [1]: 38.33 G/DL
- MEAN CORPUSCULAR VOLUME [1]: 62.6 fL
- MONOCYTE [1]: 1%
- NEUTROPHIL [1]: 10%
- NUCLEATED RED BLOOD CELLS [1]: 0.33 /100WBC
- PLATELET COUNT [1]: 1291 x10E3/uL
- ALANINE AMINOTRANSFERASE [1]: 51.67 u/L
- ALBUMIN [1]: 4.43 G/DL
- ALKALINE PHOSPHATASE [1]: 455.67 u/L
- ASPARTATE AMINOTRANSFERASE [1]: 87.33 u/L
- BLOOD UREA NITROGEN [1]: 16 mg/dL
- CARBON DIOXIDE [1]: 24 mmol/L
- CHLORIDE [1]: 107.33 MEQ/L
- CHOLESTEROL [1]: 68.67 mg/dL
- CREATINE PHOSPHOKINASE [1]: 294.67 u/L
- CREATININE [1]: 0.23 mg/dL
- GLUCOSE [1]: 153.33 mg/dL
- LACTATE DEHYDROGENASE [1]: 398.67 u/L
- LIPASE [1]: 10.67 u/L
- PHOSPHORUS [1]: 13.37 mg/dL
- POTASSIUM [1]: 7 MEQ/L
- SODIUM [1]: 149 MEQ/L
- TOTAL BILIRUBIN [1]: 0.27 mg/dL
- TOTAL PROTEIN [1]: 6.23 G/DL
- URIC ACID [1]: 1.53 mg/dL
- ABSOLUTE BASOPHIL [2]: 0 CELLS/uL
- ABSOLUTE EOSINOPHIL [2]: 43 CELLS/uL
- ABSOLUTE LYMPHOCYTE [2]: 10491.67 CELLS/uL
- ABSOLUTE MONOCYTE [2]: 227.33 CELLS/uL
- ABSOLUTE SEGMENTED NEUTROPHIL [2]: 1004.67 CELLS/uL
- BASOPHIL [2]: 0%
- EOSINOPHIL [2]: 0.33%
- ERYTHROCYTE COUNT [2]: 6.03 x10E6/uL
- HEMATOCRIT [2]: 38.43%
- HEMOGLOBIN [2]: 14.23 G/DL
- LEUKOCYTE COUNT [2]: 11.77 x10E3/uL
- LYMPHOCYTE [2]: 89%
- MEAN CORPUSCULAR HEMOGLOBIN [2]: 23.67 pg
- MEAN CORPUSCULAR HEMOGLOBIN CONCENTRATION [2]: 37.03 G/DL
- MEAN CORPUSCULAR VOLUME [2]: 63.87 fL
- MONOCYTE [2]: 2%
- NEUTROPHIL [2]: 8.67%
- NUCLEATED RED BLOOD CELLS [2]: 0 /100WBC
- PLATELET COUNT [2]: 1197.33 x10E3/uL
- ALANINE AMINOTRANSFERASE [2]: 65 u/L
- ALBUMIN [2]: 4.63 G/DL
- ALKALINE PHOSPHATASE [2]: 455 u/L
- ASPARTATE AMINOTRANSFERASE [2]: 98.67 u/L
- BLOOD UREA NITROGEN [2]: 16.33 mg/dL
- CARBON DIOXIDE [2]: 24 mmol/L
- CHLORIDE [2]: 104.67 MEQ/L
- CHOLESTEROL [2]: 69.33 mg/dL
- CREATINE PHOSPHOKINASE [2]: 336 u/L
- CREATININE [2]: 0.19 mg/dL
- GLUCOSE [2]: 168.67 mg/dL
- LACTATE DEHYDROGENASE [2]: 329 u/L
- LIPASE [2]: 10.33 u/L
- PHOSPHORUS [2]: 15.57 mg/dL
- POTASSIUM [2]: 7.49 MEQ/L
- SODIUM [2]: 147.77 MEQ/L
- TOTAL BILIRUBIN [2]: 0.17 mg/dL
- TOTAL PROTEIN [2]: 6.6 G/DL
- URIC ACID [2]: 2.67 mg/dL
- ABSOLUTE BASOPHIL [3]: 0 CELLS/uL
- ABSOLUTE EOSINOPHIL [3]: 35 CELLS/uL
- ABSOLUTE LYMPHOCYTE [3]: 7367 CELLS/uL
- ABSOLUTE MONOCYTE [3]: 79.33 CELLS/uL
- ABSOLUTE SEGMENTED NEUTROPHIL [3]: 1085.33 CELLS/uL
- BASOPHIL [3]: 0%
- EOSINOPHIL [3]: 0.33%
- ERYTHROCYTE COUNT [3]: 5.88 x10E6/uL
- HEMATOCRIT [3]: 37.6%
- HEMOGLOBIN [3]: 13.93 G/DL
- LEUKOCYTE COUNT [3]: 8.57 x10E3/uL
- LYMPHOCYTE [3]: 86%
- MEAN CORPUSCULAR HEMOGLOBIN [3]: 23.7 pg
- MEAN CORPUSCULAR HEMOGLOBIN CONCENTRATION [3]: 37.07 G/DL
- MEAN CORPUSCULAR VOLUME [3]: 64 fL
- MONOCYTE [3]: 1%
- NEUTROPHIL [3]: 12.67%
- NUCLEATED RED BLOOD CELLS [3]: 0.33 /100WBC
- PLATELET COUNT [3]: 1265.33 x10E3/uL
- ALANINE AMINOTRANSFERASE [3]: 45.33 u/L
- ALBUMIN [3]: 4.9 G/DL
- ALKALINE PHOSPHATASE [3]: 446 u/L
- ASPARTATE AMINOTRANSFERASE [3]: 84 u/L
- BLOOD UREA NITROGEN [3]: 18.33 mg/dL
- CARBON DIOXIDE [3]: 17 mmol/L
- CHLORIDE [3]: 102 MEQ/L
- CHOLESTEROL [3]: 71.33 mg/dL
- CREATINE PHOSPHOKINASE [3]: 290.67 u/L
- CREATININE [3]: 0.2 mg/dL
- GLUCOSE [3]: 148 mg/dL
- LACTATE DEHYDROGENASE [3]: 411.33 u/L
- LIPASE [3]: 11.33 u/L
- PHOSPHORUS [3]: 13.93 mg/dL
- POTASSIUM [3]: 7.66 MEQ/L
- SODIUM [3]: 147.03 MEQ/L
- TOTAL BILIRUBIN [3]: 0.27 mg/dL
- TOTAL PROTEIN [3]: 6.87 G/DL
- URIC ACID [3]: 2.23 mg/dL
- ABSOLUTE BASOPHIL [4]: 0 CELLS/uL
- ABSOLUTE EOSINOPHIL [4]: 26.33 CELLS/uL
- ABSOLUTE LYMPHOCYTE [4]: 7838.33 CELLS/uL
- ABSOLUTE MONOCYTE [4]: 52.67 CELLS/uL
- ABSOLUTE SEGMENTED NEUTROPHIL [4]: 1616 CELLS/uL
- BASOPHIL [4]: 0%
- EOSINOPHIL [4]: 0.33%
- ERYTHROCYTE COUNT [4]: 6.38 x10E6/uL
- HEMATOCRIT [4]: 39.03%
- HEMOGLOBIN [4]: 14.3 G/DL
- LEUKOCYTE COUNT [4]: 9.53 x10E3/uL
- LYMPHOCYTE [4]: 81.33%
- MEAN CORPUSCULAR HEMOGLOBIN [4]: 22.43 pg
- MEAN CORPUSCULAR HEMOGLOBIN CONCENTRATION [4]: 36.63 G/DL
- MEAN CORPUSCULAR VOLUME [4]: 61.17 fL
- MONOCYTE [4]: 0.67%
- NEUTROPHIL [4]: 17.67%
- NUCLEATED RED BLOOD CELLS [4]: 0 /100WBC
- PLATELET COUNT [4]: 1351.33 x10E3/uL
- ALANINE AMINOTRANSFERASE [4]: 47 u/L
- ALBUMIN [4]: 4.67 G/DL
- ALKALINE PHOSPHATASE [4]: 399 u/L
- ASPARTATE AMINOTRANSFERASE [4]: 95.33 u/L
- BLOOD UREA NITROGEN [4]: 19 mg/dL
- CARBON DIOXIDE [4]: 30.67 mmol/L
- CHLORIDE [4]: 103.33 MEQ/L
- CHOLESTEROL [4]: 49 mg/dL
- CREATINE PHOSPHOKINASE [4]: 935.33 u/L
- CREATININE [4]: 0.2 mg/dL
- GLUCOSE [4]: 169 mg/dL
- LACTATE DEHYDROGENASE [4]: 578.33 u/L
- LIPASE [4]: 12.33 u/L
- PHOSPHORUS [4]: 13.23 mg/dL
- POTASSIUM [4]: 6.47 MEQ/L
- SODIUM [4]: 147.4 MEQ/L
- TOTAL BILIRUBIN [4]: 0.27 mg/dL
- TOTAL PROTEIN [4]: 6.8 G/DL
- URIC ACID [4]: 1.87 mg/dL

Reference: ChEMBL document CHEMBL3885881, “DrugMatrix”
